Experimental findings from ChEMBL document CHEMBL1759905, “Nonsteroidal 2,3-dihydroquinoline glucocorticoid receptor agonists with reduced PEPCK activation” (Bioorg Med Chem Lett, 2011) are described below.

Experiment [1] deals with T1, Glucocorticoid receptor (Homo sapiens) (UniProt P04150).
T1 sequence (whole entry): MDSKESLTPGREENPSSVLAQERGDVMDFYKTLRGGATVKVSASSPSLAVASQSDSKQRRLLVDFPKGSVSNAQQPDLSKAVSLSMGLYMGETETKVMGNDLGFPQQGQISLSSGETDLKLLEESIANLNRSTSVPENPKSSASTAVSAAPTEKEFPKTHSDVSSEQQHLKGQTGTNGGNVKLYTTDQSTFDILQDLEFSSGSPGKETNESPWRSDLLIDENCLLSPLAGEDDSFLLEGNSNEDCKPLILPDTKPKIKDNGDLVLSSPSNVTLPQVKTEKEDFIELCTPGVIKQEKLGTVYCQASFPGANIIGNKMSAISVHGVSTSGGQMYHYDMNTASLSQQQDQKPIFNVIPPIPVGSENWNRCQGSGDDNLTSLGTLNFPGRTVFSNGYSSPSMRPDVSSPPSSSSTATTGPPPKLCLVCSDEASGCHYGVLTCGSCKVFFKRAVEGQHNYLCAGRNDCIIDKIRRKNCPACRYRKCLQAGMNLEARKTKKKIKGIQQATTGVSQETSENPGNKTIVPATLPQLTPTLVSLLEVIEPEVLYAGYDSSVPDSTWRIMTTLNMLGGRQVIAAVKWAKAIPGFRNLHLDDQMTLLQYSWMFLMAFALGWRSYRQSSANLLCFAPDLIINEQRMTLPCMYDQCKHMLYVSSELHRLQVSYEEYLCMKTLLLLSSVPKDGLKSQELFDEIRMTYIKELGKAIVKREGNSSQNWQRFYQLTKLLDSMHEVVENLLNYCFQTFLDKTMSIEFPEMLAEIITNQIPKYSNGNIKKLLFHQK
The experiment in a line: Transrepression activity at glucocorticoid receptor in human HepG2 cells assessed as inhibition of TNFalpha/IL1beta-stimulated NFkappaB-dependent E-selectin repression by luciferase reporter gene assay relative to Dexamethasone. More on the design: scale not given: the % may be the effect or the level left. In kind it is cell-based. On the technique in general: A reporter such as luciferase makes a cellular process visible.

Experiment [2] has as its target T2, Mineralocorticoid receptor (Homo sapiens, UniProt P08235).
T2 sequence (P08235 whole entry): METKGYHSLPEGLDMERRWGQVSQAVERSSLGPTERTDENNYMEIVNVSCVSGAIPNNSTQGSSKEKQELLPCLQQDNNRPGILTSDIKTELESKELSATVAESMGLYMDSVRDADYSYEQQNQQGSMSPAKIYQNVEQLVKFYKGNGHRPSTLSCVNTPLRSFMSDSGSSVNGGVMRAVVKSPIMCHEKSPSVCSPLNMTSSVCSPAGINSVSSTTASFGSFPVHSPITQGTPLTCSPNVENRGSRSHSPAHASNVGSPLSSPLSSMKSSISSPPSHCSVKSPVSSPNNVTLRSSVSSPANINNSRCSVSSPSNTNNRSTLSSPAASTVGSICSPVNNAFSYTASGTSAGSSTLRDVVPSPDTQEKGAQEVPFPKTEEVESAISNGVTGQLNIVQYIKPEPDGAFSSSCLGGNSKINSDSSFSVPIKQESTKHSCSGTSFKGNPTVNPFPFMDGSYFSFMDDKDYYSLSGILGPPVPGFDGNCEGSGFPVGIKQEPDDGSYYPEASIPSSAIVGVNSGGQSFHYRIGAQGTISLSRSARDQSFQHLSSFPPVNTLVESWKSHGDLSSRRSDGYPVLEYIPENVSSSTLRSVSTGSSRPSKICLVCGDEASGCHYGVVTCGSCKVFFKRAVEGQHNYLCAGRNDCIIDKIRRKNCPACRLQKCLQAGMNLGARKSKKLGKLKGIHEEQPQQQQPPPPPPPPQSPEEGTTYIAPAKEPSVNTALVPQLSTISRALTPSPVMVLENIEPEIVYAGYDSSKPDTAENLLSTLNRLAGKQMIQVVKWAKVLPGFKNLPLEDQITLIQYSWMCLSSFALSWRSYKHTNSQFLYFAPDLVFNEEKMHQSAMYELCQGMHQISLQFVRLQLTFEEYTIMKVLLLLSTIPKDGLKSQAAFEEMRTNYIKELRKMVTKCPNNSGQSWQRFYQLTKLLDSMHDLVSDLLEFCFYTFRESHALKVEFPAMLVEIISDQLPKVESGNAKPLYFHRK
The experiment in a line: Binding affinity to mineralocorticoid receptor.

The target in the next experiment is T3, Androgen receptor (Homo sapiens, UniProt P10275).
T3 sequence (P10275 whole entry): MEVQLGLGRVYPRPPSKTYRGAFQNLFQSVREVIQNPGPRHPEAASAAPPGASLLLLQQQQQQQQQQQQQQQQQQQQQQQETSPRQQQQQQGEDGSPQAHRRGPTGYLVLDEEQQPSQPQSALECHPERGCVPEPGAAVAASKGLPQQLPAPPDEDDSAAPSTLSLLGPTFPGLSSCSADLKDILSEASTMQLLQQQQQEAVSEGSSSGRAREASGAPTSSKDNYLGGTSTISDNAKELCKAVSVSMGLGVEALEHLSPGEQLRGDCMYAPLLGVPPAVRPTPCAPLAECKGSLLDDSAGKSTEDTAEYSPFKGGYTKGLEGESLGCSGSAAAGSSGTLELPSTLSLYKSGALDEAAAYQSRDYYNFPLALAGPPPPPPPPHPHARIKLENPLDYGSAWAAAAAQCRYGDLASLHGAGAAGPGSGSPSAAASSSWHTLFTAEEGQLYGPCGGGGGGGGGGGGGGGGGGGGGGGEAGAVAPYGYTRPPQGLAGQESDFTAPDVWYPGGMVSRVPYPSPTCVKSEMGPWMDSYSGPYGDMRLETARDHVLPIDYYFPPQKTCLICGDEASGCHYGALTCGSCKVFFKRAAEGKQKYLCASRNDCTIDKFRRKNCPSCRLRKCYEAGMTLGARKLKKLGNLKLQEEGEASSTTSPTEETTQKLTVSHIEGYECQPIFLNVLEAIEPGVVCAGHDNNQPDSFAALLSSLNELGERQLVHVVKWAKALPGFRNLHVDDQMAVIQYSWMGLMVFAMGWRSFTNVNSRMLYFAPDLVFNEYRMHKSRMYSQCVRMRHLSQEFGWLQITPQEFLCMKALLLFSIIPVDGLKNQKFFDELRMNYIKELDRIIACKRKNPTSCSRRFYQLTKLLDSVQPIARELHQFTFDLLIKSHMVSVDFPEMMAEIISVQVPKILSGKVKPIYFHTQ
The experiment in a line: Binding affinity to androgen receptor.

The next experiment concerns the target T4, Glucocorticoid receptor (Homo sapiens, UniProt P04150).
T4 sequence (P04150 whole entry): T1 sequence (whole entry)
The experiment in a line: Agonist activity at glucocorticoid receptor in human HepG2 cells co-transfected with GRE assessed as GRE activation by luciferase reporter gene assay. The experiment is classed as functional, cell-based.

One may read the Ki as a measure of affinity in units of concentration, obtained from inhibition or displacement. Usually EC50 stands for the concentration at which the effect is half-maximal. As to `Cc1c[nH]c2c(-c3c(F)cc4c(c3F)/C(=N/OC(C)(C)CO)CC(C)(C)N4)cccc12`, the Activity in experiment [1] worked out at 91%. For the same molecule, the Ki in experiment [2] amounted to 2.7 µM; at Androgen receptor, 0.29 µM. Moreover, the EC50 on Glucocorticoid receptor came out at 0.019 µM.
For `Cc1c[nH]c2c(-c3c(F)cc4c(c3F)/C(=N/OC(C)C)CC(C)(C)N4)cccc12` the same measures were 90%, 2.8 µM, 1.5 µM and 0.0006 µM.
For `CC1(C)C/C(=N\OC(C)(C)C)c2c(cc(F)c(-c3cccc4c(Cl)c[nH]c34)c2F)N1`, the Activity in experiment [1] is 94%. The Ki amounted to 1.04 µM in experiment [2] and 0.09 µM at Androgen receptor. Moreover, the EC50 at Glucocorticoid receptor worked out at 0.0034 µM.
With `CO/N=C1/c2c(cc(F)c(-c3cccc4c(C)c[nH]c34)c2F)NC(C)(C)C1O` (racemic), the Activity in experiment [1] was found to be 96%. In addition, the results for the Ki (in experiment [2]; at Androgen receptor) were 1.7 µM and 2.8 µM, respectively. For the same molecule, at Glucocorticoid receptor, the EC50 amounted to 0.0039 µM.
Turning to `Cc1c[nH]c2c(-c3c(F)cc4c(c3F)/C(=N/OC(C)(C)C)CC(C)(C)N4)cccc12`, the Activity in experiment [1] amounted to 91%. Besides, the Ki in experiment [2] came out at 1.6 µM; at Androgen receptor, 1 µM. For the same molecule, the EC50 at Glucocorticoid receptor is 0.005 µM.
